Laboratory results from ChEMBL document CHEMBL6078723, “Novel steroidal β-carboline derivatives as promising antibacterial candidates against methicillin-resistant Staphylococcus aureus” (Eur J Med Chem, 2025).

Key:
Format in all cases: functional
[1] = system: Staphylococcus aureus; test: Antibacterial activity against methicillin-resistant Staphylococcus aureus CGMCC1.12409
[2] = system: Staphylococcus aureus; test: Bactericidal activity against methicillin-resistant Staphylococcus aureus ATCC 33591 by CLSI based method
[3] = system: Staphylococcus aureus; test: Antibacterial activity against Staphylococcus aureus CGMCC1.8721 at 37.5 degreeC (reference value: 0.5 ug/ml)
[4] = system: Staphylococcus aureus; test: Antibacterial activity against methicillin-resistant Staphylococcus aureus CGMCC1.12409 at pH 6.5 (reference value: 0.5 ug/ml)
[5] = system: Staphylococcus aureus; test: Antibacterial activity against methicillin-resistant Staphylococcus aureus ATCC 33591 in presence of Na+ (reference value: 1 ug/ml)

**Q.** Which MIC [1] does the source give for `COc1ccc2[nH]c3c(CC[C@H](C)[C@H]4CC[C@H]5[C@@H]6[C@H](O)C[C@@H]7C[C@H](O)CC[C@]7(C)[C@H]6C[C@H](O)[C@]45C)[n+](Cc4ccc(Cl)cc4)ccc3c2c1.[Br-]` here?
**A.** 0.5 µg/mL

**Q.** What about the MBC [2] of the same compound?
**A.** 2 µg/mL

**Q.** And the MIC [3]?
**A.** 0.5 µg/mL

**Q.** What about the MIC [4] of the same compound?
**A.** 1 µg/mL

**Q.** What about the MIC [5] of the same compound?
**A.** 1 µg/mL
